Test results published in patent US20210386668A1, “Cyclodextrin for use in the treatment and prevention of late phase bronchoconstriction in allergen-induced asthma” (Universite de Liege, priority 2020, published 2021).

Test system: BALB/c mice, OVA induced inflammation and AHR
Assay: Ovalbumin-induced airway inflammation and AHR mouse model
Type: in vivo
Conditions: HPBCD 10 mM inhalation
Protocol: Two intranasal instillations of house dust mite were performed on days 0 and 7 to induce the migration of specific memory CD4+ T-cells into lung parenchyma, followed by a challenge instillation on day 14. […] The last house dust mite instillation was preceded by two days of HPBCD or PBS inhalations and followed by three inhalations until sacrifice (FIG. 1A). […] Airway responsiveness was evaluated by exposing animals to increasing doses of inhaled methacholine and by measuring Newtonian resistances representing the resistance of central or conducting airways. […] The bronchoalveolar lavage fluid (BALF) was then recovered and analyzed for cell content. […] The effect of HPBCD inhalation on T-cell numbers in lung parenchyma was investigated by flow cytometry.
Mice were lightly isoflurane-anesthetized and received an intra-nasal (i.n) instillation of HDM extract (100 μg; 50 μl) in endotoxin-free saline on days 0, 7 and 14. Mice were subjected to inhalation (generated by ultrasonic nebulizer (Devilbiss 2000)) of HPBCD 10 mM or endotoxin-free saline for 40 minutes between day 12 and 16. On day 14, they received the inhalation 1 h before the last i.n. instillation of HDM. After measurement of bronchial responsiveness using the FlexiVent System, mice were sacrificed on day 17. Mice submitted to ovalbumin as allergen were i.p injected with 10 mcg ovalbumin grade 5 and exposed to ovalbumin grade 3 by inhalation between day 21 and 25. Mice were treated with HPBCD 10 mM given by inhalation between day 19 and 25. […]
Mice were anesthetized by intraperitoneal injection with a mixture of ketamine (10 mg/ml, Merial, Brussel, Belgium) and xylazine (1 mg/ml, VMD, Arendonk, Belgium). […] Respiratory parameters following methacholine challenge (3, 6, and 12 gr/l (or 24 gr/l)) were evaluated using a 3 sec broadband signal to measure input impedance from 1 to 20.5 Hz and to calculate constant-phase model parameters (Quick-prime 3). Newtonian resistance (Rn) was the main parameter measured during the challenge. […]

CC(O)COC[C@H]1O[C@@H]2O[C@H]3[C@H](O)[C@@H](O)[C@@H](O[C@H]4[C@H](O)[C@@H](O)[C@@H](O[C@H]5[C@H](O)[C@@H](O)[C@@H](O[C@H]6[C@H](O)[C@@H](O)[C@@H](O[C@H]7[C@H](O)[C@@H](O)[C@@H](O[C@H]8[C@H](O)[C@@H](O)[C@@H](O[C@H]1[C@H](O)[C@H]2O)O[C@@H]8COCC(C)O)O[C@@H]7COCC(C)O)O[C@@H]6COCC(C)O)O[C@@H]5COCC(C)O)O[C@@H]4COCC(C)O)O[C@@H]3COCC(C)O (stereo partly drawn) [HPBCD, 2-hydroxypropyl-beta-cyclodextrin]
significantly decrease: airway hyperresponsiveness induced by ovalbumin (FIG. 2B) | number of inflammatory cells in BALF (FIG. 2C) | number of eosinophils around the bronchi (FIG. 2D)
